# [ ]: non-standard residue; d: D form. The star is where a group is joined. Palmitoyl = CCCCCCCCCCCCCCCC(=O)*; NHhexadecyl = CCCCCCCCCCCCCCCCN*; Myristoyl = CCCCCCCCCCCCCC(=O)*; Orn = NCCC[C@H](N)C(=O)O; NHHex = CCCCCCN*
# System: human miRNA145
# Experiment: miRNA145 inhibition on Human Keratinocyte HaCaT cell line, direct quantification by luminescence
# Assay type: cell-based
# Settings: HaCaT cells, 0.3 mg/ml, 24 hours, normalized with Snord48; mean of 3 experiments for DD14024, one experiment for the others
# Experimental: The synthetic peptide candidates are evaluated for the inhibition of human miRNA145 expression level using a direct miRNA145 quantification assay based on luminescence detection in a Human Keratinocyte HaCaT cell line.
# HaCat cells (Deutsches Krebsforschungszentrum) are seeded at 3.0×10^4 cells/well in 96-clear wells plates and incubated in a culture medium [(DMEM High Glucose with L-Glutamine (Lonza), supplemented with 10% Fetal Bovine Serum (Cultek)] for 24 hours at 37° C. in a water-saturated atmosphere of 95% air and 5% CO2. Then, the cells with the candidates added at 0.3 mg/ml in the culture medium are treated for 24 hours at 37° C., 95% air and 5% CO2. Cells with culture medium only are treated to the same conditions to provide basal conditions. Each cell culture condition is assayed at least in 6 biological replicates. At the end of the incubation period, the cells are lysed and the relative miRNA145 expression level is quantified by a specific assay kit (QuantiGene™ 2.0 miRNA Assay Kit) following manufacturer's instructions (Affymetrix). Briefly, to capture miRNA145, culture lysates are incubated overnight at 46±1° C. in 96-white well plates with the miRNA145 specific probe set (Capture extenders and Label extenders). As an endogenous expression control, the housekeeping Snord48 is quantified using a specific probe set. Next day, the signal amplification tree is built via sequential hybridization at 46±1° C. of three probes: PreAmplifier, Amplifier and Alkaline Phosphatase Label Probe. Then, the signal is detected by adding a chemiluminescent substrate and using a Microplate Luminometer Reader (Clariostar-BMG LabTech).
# The miRNA145 expression level result is normalized with the Snord48 expression level for each cell culture condition and the relative decrease in the miRNA145 expression level is calculated respect to basal control (cells treated with culture medium only). The values represent the mean of 3 independent experiments for DD14024, and for the other candidates, represent the result of one experiment.
substance,measurement,value
Ac-Asn-Glu-Ile-Arg-Val-Gln-OH (Ac-NEIRVQ-OH) [DD15026],Relative level of miRNA145 respect to basal control (%),77.60 ± 5.43%
Ac-Asp-Gln-Met-Arg-Met-Gln-OH (Ac-DQMRMQ-OH) [DD15053],Relative level of miRNA145 respect to basal control (%),58.64 ± 0.04%
Ac-Asp-Glu-Met-Arg-Met-Gln-OH (Ac-DEMRMQ-OH) [DD15012],Relative level of miRNA145 respect to basal control (%),71.05 ± 3.82%
Ac-Gln-Asp-Met-Arg-Met-Gln-NHC6H13 (Ac-QDMRMQ-NHHex; SMILES CCCCCCNC(=O)[C@H](CCC(N)=O)NC(=O)[C@H](CCSC)NC(=O)[C@H](CCCNC(=N)N)NC(=O)[C@H](CCSC)NC(=O)[C@H](CC(=O)O)NC(=O)[C@H](CCC(N)=O)NC(C)=O) [DD15013],Relative level of miRNA145 respect to basal control (%),84.32 ± 6.96%
Ac-Gln-Asp-Met-Lys-Met-Asn-OH (Ac-QDMKMN-OH) [DD15027],Relative level of miRNA145 respect to basal control (%),78.47 ± 0.74%
Ac-Gln-Gln-Met-Arg-Met-Gln-OH (Ac-QQMRMQ-OH) [DD15014],Relative level of miRNA145 respect to basal control (%),80.06 ± 3.47%
Ac-Gln-Glu-Met-Arg-Met-Asn-OH (Ac-QEMRMN-OH) [DD15056],Relative level of miRNA145 respect to basal control (%),72.43 ± 1.39%
Ac-Gln-Glu-Met-Arg-Met-Gln-NH2 (Ac-QEMRMQ-NH2) [DD14023],Relative level of miRNA145 respect to basal control (%),87.03 ± 2.65%
Ac-Gln-Glu-Met-Arg-Met-Gln-NHC6H13 (Ac-QEMRMQ-NHHex) [DD15004],Relative level of miRNA145 respect to basal control (%),89.03 ± 5.37%
Ac-Gln-Glu-Met-Arg-Met-Gln-Thr-NH2 (Ac-QEMRMQT-NH2) [DD15047],Relative level of miRNA145 respect to basal control (%),77.67 ± 9.10%
Ac-Gln-Glu-Met-Arg-Met-Gln-Tyr-OH (Ac-QEMRMQY-OH) [DD15046],Relative level of miRNA145 respect to basal control (%),74.02 ± 1.98%
Ac-Gln-Glu-Met-Arg-Met-Gln-Val-Tyr-OH (Ac-QEMRMQVY-OH) [DD15049],Relative level of miRNA145 respect to basal control (%),80.09 ± 7.49%
Ac-Gln-Glu-Met-Arg-Met-Glu-OH (Ac-QEMRME-OH) [DD15020],Relative level of miRNA145 respect to basal control (%),62.43 ± 0.89%
Ac-Gln-Glu-Met-Lys-Leu-Gln-OH (Ac-QEMKLQ-OH) [DD15024],Relative level of miRNA145 respect to basal control (%),87.92 ± 1.32%
Ac-Gln-Glu-Met-Lys-Met-Gln-OH (Ac-QEMKMQ-OH) [DD15017],Relative level of miRNA145 respect to basal control (%),85.50 ± 1.74%
Ac-Glu-Gln-Met-Arg-Met-Gln-OH (Ac-EQMRMQ-OH) [DD15054],Relative level of miRNA145 respect to basal control (%),72.50 ± 2.88%
Ac-Glu-Glu-Ile-Arg-Met-Gln-NHC16H33 (Ac-EEIRMQ-NHhexadecyl; SMILES CCCCCCCCCCCCCCCCNC(=O)[C@H](CCC(N)=O)NC(=O)[C@H](CCSC)NC(=O)[C@H](CCCNC(=N)N)NC(=O)[C@@H](NC(=O)[C@H](CCC(=O)O)NC(=O)[C@H](CCC(=O)O)NC(C)=O)[C@@H](C)CC) [DD15023],Relative level of miRNA145 respect to basal control (%),74.48 ± 3.34%
Ac-Glu-Glu-Met-Arg-Met-Gln-OH (Ac-EEMRMQ-OH) [DD15051],Relative level of miRNA145 respect to basal control (%),92.26 ± 1.61%
Ac-Pro-Gln-Glu-Met-Arg-Met-Gln-OH (Ac-PQEMRMQ-OH) [DD15045],Relative level of miRNA145 respect to basal control (%),90.71 ± 4.78%
Ac-Pro-Val-Gln-Glu-Met-Arg-Met-Gln-OH (Ac-PVQEMRMQ-OH) [DD15048],Relative level of miRNA145 respect to basal control (%),89.54 ± 3.79%
Ac-QEM[Orn]MQ-OH [DD15022],Relative level of miRNA145 respect to basal control (%),75.41 ± 2.25%
Ac-Ser-Gln-Glu-Met-Arg-Met-Gln-Thr-NH2 (Ac-SQEMRMQT-NH2) [DD15050],Relative level of miRNA145 respect to basal control (%),72.44 ± 3.87%
H-Gln-Asp-Met-Arg-Met-Asn-NH2 (H-QDMRMN-NH2) [DD15025],Relative level of miRNA145 respect to basal control (%),86.95 ± 0.55%
H-Gln-Glu-Ile-Arg-Met-Gln-NH2 (H-QEIRMQ-NH2) [DD15016],Relative level of miRNA145 respect to basal control (%),87.63 ± 4.46%
H-Gln-Glu-Met-Arg-Ile-Gln-NH2 (H-QEMRIQ-NH2) [DD15019],Relative level of miRNA145 respect to basal control (%),67.00 ± 2.89%
H-Gln-Glu-Met-Arg-Leu-Gln-NH2 (H-QEMRLQ-NH2) [DD15055],Relative level of miRNA145 respect to basal control (%),67.03 ± 0.23%
H-Gln-Glu-Met-Arg-Met-Gln-OH (H-QEMRMQ-OH) [DD15002],Relative level of miRNA145 respect to basal control (%),89.75 ± 0.69%
Myr-Gln-Glu-Met-Arg-Met-Gln-NH2 (Myristoyl-QEMRMQ-NH2) [DD15052],Relative level of miRNA145 respect to basal control (%),92.94 ± 1.35%
Myr-Glu-Glu-Met-Arg-Met-Gln-OH (Myristoyl-EEMRMQ-OH; SMILES CCCCCCCCCCCCCC(=O)N[C@@H](CCC(=O)O)C(=O)N[C@@H](CCC(=O)O)C(=O)N[C@@H](CCSC)C(=O)N[C@@H](CCCNC(=N)N)C(=O)N[C@@H](CCSC)C(=O)N[C@@H](CCC(N)=O)C(=O)O) [DD15011],Relative level of miRNA145 respect to basal control (%),73.29 ± 4.37%
Palm-Gln-Glu-Leu-Arg-Met-Gln-OH (Palmitoyl-QELRMQ-OH; SMILES CCCCCCCCCCCCCCCC(=O)N[C@@H](CCC(N)=O)C(=O)N[C@@H](CCC(=O)O)C(=O)N[C@@H](CC(C)C)C(=O)N[C@@H](CCCNC(=N)N)C(=O)N[C@@H](CCSC)C(=O)N[C@@H](CCC(N)=O)C(=O)O) [DD15015],Relative level of miRNA145 respect to basal control (%),14.07 ± 0.28%
Palm-Gln-Glu-Met-Arg-Met-Gln-OH (Palmitoyl-QEMRMQ-OH) [DD15003],Relative level of miRNA145 respect to basal control (%),76.38 ± 7.00%

# From US10799442B2, “Compounds useful in the treatment and/or care of the skin, hair, nails, and/or mucous membranes” (LUBRIZOL ADVANCED MATERIALS, INC., priority 2015, dated 2020)
